Source: patent publication US11001590B2, “Pyrazolopyrimidine derivatives” (BAYER ANIMAL HEALTH GMBH, priority 2016, dated 2021)

How the values were obtained:
[1] = tested on: Litomosoides sigmodontis third-stage larvae; experiment: In vitro assay 7: Litomosoides sigmodontis L3 (LTMOSI), motility; settings: 72 h, reduction of motility vs negative control, 72 h incubation
Description: In Vitro Assay 7: Litomosoides Siqmodontis L3 (LTMOSI)
10 Litomosoides sigmodontis third-stage larvae, which were freshly isolated from the pleural cavity of an infected rodent, were added to wells of a microtitre plate containing a nutrient medium and the test compound in DMSO. Compounds were tested in concentration-response assay in duplicate. Larvae exposed to DMSO and no test compounds were used as negative controls. Larvae were evaluated after 72 h of incubation with the compound. Efficacy was determined as the reduction of motility in comparison to the negative control. Based on the evaluation of a wide concentration range, concentration-response curves as well as ECso-values were calculated.

C. elegans Slo-1a = C. elegans Slo-1a (Caenorhabditis elegans, UniProt Q95V25); experiment: In vitro assay 1: C. elegans Slo-1a, action at a recombinant C. elegans CHO cell line (membrane potential measurement)
[2] = log P by HPLC on reversed phase columns (Method L0; [a] acidic, [b] neutral range)
Description: Calibration was done with straight-chain alkan-2-ones (with 3 to 16 carbon atoms) with known log P values (measurement of log P values using retention times with linear interpolation between successive alkanones). Lambda-max-values were determined using UV-spectra from 200 nm to 400 nm and the peak values of the chromatographic signals.

[3] = tested on: Dirofilaria immitis microfilariae; experiment: In vitro assay 3: Dirofilaria immitis microfilariae (DIROIM L1), motility; settings: 72 h, reduction of motility vs negative control, 72 h incubation
[4] = tested on: Dirofilaria immitis third-stage larvae; experiment: In vitro assay 4: Dirofilaria immitis (DIROIM L4), motility of larvae; settings: 72 h

Sequence of C. elegans Slo-1a (Q95V25 whole entry): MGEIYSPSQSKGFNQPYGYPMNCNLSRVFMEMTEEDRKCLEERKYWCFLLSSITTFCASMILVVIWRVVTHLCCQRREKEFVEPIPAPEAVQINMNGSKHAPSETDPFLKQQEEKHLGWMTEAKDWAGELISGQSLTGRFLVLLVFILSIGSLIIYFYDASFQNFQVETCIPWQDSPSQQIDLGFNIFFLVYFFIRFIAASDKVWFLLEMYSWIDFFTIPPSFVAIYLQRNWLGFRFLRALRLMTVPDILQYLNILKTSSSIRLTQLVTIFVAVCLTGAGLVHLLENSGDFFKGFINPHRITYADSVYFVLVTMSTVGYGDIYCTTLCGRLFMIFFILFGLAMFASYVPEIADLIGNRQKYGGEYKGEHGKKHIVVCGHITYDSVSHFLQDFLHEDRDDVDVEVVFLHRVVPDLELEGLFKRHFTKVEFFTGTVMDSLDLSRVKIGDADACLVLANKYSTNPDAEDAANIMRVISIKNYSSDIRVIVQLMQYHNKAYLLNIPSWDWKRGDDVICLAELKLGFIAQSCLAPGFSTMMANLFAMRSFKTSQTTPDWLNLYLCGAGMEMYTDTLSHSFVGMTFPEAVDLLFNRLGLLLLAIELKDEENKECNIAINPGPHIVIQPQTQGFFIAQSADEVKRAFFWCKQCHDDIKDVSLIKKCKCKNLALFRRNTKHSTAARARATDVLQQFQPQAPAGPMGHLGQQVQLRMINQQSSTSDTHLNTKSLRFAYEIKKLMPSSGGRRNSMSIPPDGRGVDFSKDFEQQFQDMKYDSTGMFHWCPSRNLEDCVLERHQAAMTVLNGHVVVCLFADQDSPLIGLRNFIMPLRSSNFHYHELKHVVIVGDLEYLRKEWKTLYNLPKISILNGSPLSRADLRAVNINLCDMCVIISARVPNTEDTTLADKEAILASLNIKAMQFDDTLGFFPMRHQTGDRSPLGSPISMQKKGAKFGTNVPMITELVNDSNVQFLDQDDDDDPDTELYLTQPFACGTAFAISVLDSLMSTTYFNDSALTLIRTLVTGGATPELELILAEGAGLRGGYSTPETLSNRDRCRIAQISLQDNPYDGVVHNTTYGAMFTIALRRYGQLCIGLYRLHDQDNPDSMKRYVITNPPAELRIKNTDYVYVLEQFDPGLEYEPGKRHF

**Q.** For `Cc1nn2c(C3CC3)c(C(=O)N[C@H]3CCc4ccccc43)cnc2c1-c1ccccc1Cl` [Example 349], which EC50 [1] is on record?
**A.** < 0.1 mg/L

**Q.** And the EC50 (C. elegans Slo-1a)?
**A.** 2.51 nM

**Q.** What about the chromatographic logP [2] of the same molecule?
**A.** 3.88

**Q.** And the EC50 [3]?
**A.** < 0.1 mg/L

**Q.** And the EC50 [4]?
**A.** < 0.1 mg/L

**Q.** With `COc1cccc(-c2c(C)nn3c(C4CC4)c(C(=O)N[C@H]4CCc5ccccc54)cnc23)c1` [Example 351] as the molecule, how does the EC50 [1] read?
**A.** < 0.1 mg/L

**Q.** What about the EC50 (C. elegans Slo-1a) of the same molecule?
**A.** 3.98 nM

**Q.** And the chromatographic logP [2]?
**A.** 3.74

**Q.** And the EC50 [3]?
**A.** < 0.1 mg/L

**Q.** And the EC50 [4]?
**A.** < 0.1 mg/L

**Q.** Which EC50 [1] does the source give for `Cc1nn2c(C3CC3)c(C(=O)N[C@H]3CCc4ccccc43)cnc2c1-c1cccc(Cl)c1` [Example 352] here?
**A.** < 0.1 mg/L

**Q.** And the EC50 (C. elegans Slo-1a)?
**A.** 6.31 nM

**Q.** And the chromatographic logP [2]?
**A.** 4.38

**Q.** And the EC50 [3]?
**A.** < 0.1 mg/L

**Q.** And the EC50 [4]?
**A.** < 0.1 mg/L

**Q.** Which results are given for `Cc1nn2c(C3CC3)c(C(=O)N[C@H]3CCc4ccccc43)cnc2c1-c1cccc(F)c1` [Example 353]?
**A.** EC50 [1]: < 0.1 mg/L; EC50 (C. elegans Slo-1a): 7.94 nM; chromatographic logP [2]: 3.95; EC50 [3]: < 0.1 mg/L; EC50 [4]: < 1 mg/L

**Q.** For `Cc1nn2c(C3CC3)c(C(=O)N[C@H]3CCc4ccccc43)cnc2c1-c1ccccc1F` [Example 357], which EC50 [1] is on record?
**A.** < 0.1 mg/L

**Q.** And the EC50 (C. elegans Slo-1a)?
**A.** 6.31 nM

**Q.** And the chromatographic logP [2]?
**A.** 3.67

**Q.** And the EC50 [3]?
**A.** < 0.1 mg/L

**Q.** And the EC50 [4]?
**A.** < 0.1 mg/L

**Q.** For `COc1cccc(-c2c(C)nn3c(C(C)C)c(C(=O)N[C@H]4CCOc5ccccc54)cnc23)c1` [Example 395], which EC50 [1] is on record?
**A.** < 0.1 mg/L

**Q.** And the EC50 (C. elegans Slo-1a)?
**A.** 7.94 nM

**Q.** What about the chromatographic logP [2] of the same molecule?
**A.** 4.24

**Q.** And the EC50 [3]?
**A.** < 0.1 mg/L

**Q.** What about the EC50 [4] of the same molecule?
**A.** < 0.1 mg/L

**Q.** What does the source list for `Cc1nn2c(C(C)C)c(C(=O)N[C@H]3CCOc4ccccc43)cnc2c1-c1cccc(F)c1` [Example 396]?
**A.** EC50 [1]: < 0.1 mg/L; EC50 (C. elegans Slo-1a): 15.8 nM; chromatographic logP [2]: 4.45; EC50 [3]: < 0.1 mg/L; EC50 [4]: < 0.1 mg/L

**Q.** What does the source list for `Cc1nn2c(C(C)C)c(C(=O)N[C@H]3CCOc4ccccc43)cnc2c1-c1cncc(Cl)c1` [Example 402]?
**A.** EC50 [1]: < 0.1 mg/L; EC50 (C. elegans Slo-1a): 20 nM; chromatographic logP [2]: 3.91; EC50 [3]: < 0.1 mg/L; EC50 [4]: < 0.1 mg/L

**Q.** For `Cc1nn2c(C3CC3)c(C(=O)N[C@H]3CCc4ccccc43)cnc2c1-c1c(F)cccc1F` [Example 405], which EC50 [1] is on record?
**A.** < 0.1 mg/L

**Q.** What about the EC50 (C. elegans Slo-1a) of the same molecule?
**A.** 3.16 nM

**Q.** What about the chromatographic logP [2] of the same molecule?
**A.** 3.66

**Q.** And the EC50 [3]?
**A.** < 0.1 mg/L

**Q.** What about the EC50 [4] of the same molecule?
**A.** < 0.1 mg/L

**Q.** With `Cc1nn2c(C3CC3)c(C(=O)N[C@H]3CCc4ccccc43)cnc2c1-c1cc(F)ccc1F` [Example 422] as the molecule, how does the EC50 [1] read?
**A.** < 0.1 mg/L

**Q.** And the EC50 (C. elegans Slo-1a)?
**A.** 3.98 nM

**Q.** And the chromatographic logP [2]?
**A.** 3.84

**Q.** What about the EC50 [3] of the same molecule?
**A.** < 0.1 mg/L

**Q.** And the EC50 [4]?
**A.** < 0.1 mg/L

**Q.** With `Cc1nn2c(C3CC3)c(C(=O)N[C@H]3CCc4ccccc43)cnc2c1-c1cccc(F)c1F` [Example 424] as the molecule, how does the EC50 [1] read?
**A.** < 0.1 mg/L

**Q.** What about the EC50 (C. elegans Slo-1a) of the same molecule?
**A.** 2.51 nM

**Q.** And the chromatographic logP [2]?
**A.** 3.84

**Q.** And the EC50 [3]?
**A.** < 0.1 mg/L

**Q.** What about the EC50 [4] of the same molecule?
**A.** < 0.1 mg/L

**Q.** Which EC50 [1] does the source give for `Cc1nn2c(C3CC3)c(C(=O)N[C@H]3CCc4ccccc43)cnc2c1-c1c(F)ccc(F)c1F` [Example 437] here?
**A.** < 0.1 mg/L

**Q.** What about the EC50 (C. elegans Slo-1a) of the same molecule?
**A.** 1.58 nM

**Q.** What about the chromatographic logP [2] of the same molecule?
**A.** 3.83

**Q.** And the EC50 [3]?
**A.** < 0.1 mg/L

**Q.** What about the EC50 [4] of the same molecule?
**A.** < 0.1 mg/L

**Q.** What does the source list for `Cc1nn2c(C3CC3)c(C(=O)N[C@H]3CCc4ccccc43)cnc2c1-c1c(F)cc(F)cc1F` [Example 438]?
**A.** EC50 [1]: < 0.1 mg/L; EC50 (C. elegans Slo-1a): 1.26 nM; chromatographic logP [2]: 3.87; EC50 [3]: < 0.1 mg/L; EC50 [4]: < 0.1 mg/L

**Q.** Which EC50 [1] does the source give for `Cc1nn2c(C3CC3)c(C(=O)N[C@H]3CCOc4ccccc43)cnc2c1-c1ccccc1Cl` [Example 452] here?
**A.** < 0.1 mg/L

**Q.** What about the EC50 (C. elegans Slo-1a) of the same molecule?
**A.** 2.51 nM

**Q.** What about the chromatographic logP [2] of the same molecule?
**A.** 3.64

**Q.** And the EC50 [3]?
**A.** < 0.1 mg/L

**Q.** What about the EC50 [4] of the same molecule?
**A.** < 0.1 mg/L

**Q.** What does the source list for `Cc1nn2c(C3CC3)c(C(=O)N[C@H]3CCOc4ccccc43)cnc2c1-c1cccc(F)c1F` [Example 457]?
**A.** EC50 [1]: < 0.1 mg/L; EC50 (C. elegans Slo-1a): 1.26 nM; chromatographic logP [2]: 3.61; EC50 [3]: < 0.1 mg/L; EC50 [4]: < 0.1 mg/L

**Q.** Which EC50 [1] does the source give for `Cc1nn2c(C3CC3)c(C(=O)N[C@H]3CCOc4ccccc43)cnc2c1-c1c(F)cccc1Cl` [Example 458] here?
**A.** < 0.1 mg/L

**Q.** And the EC50 (C. elegans Slo-1a)?
**A.** 1.58 nM

**Q.** And the chromatographic logP [2]?
**A.** 3.65

**Q.** And the EC50 [3]?
**A.** < 0.1 mg/L

**Q.** What about the EC50 [4] of the same molecule?
**A.** < 0.1 mg/L

**Q.** What does the source list for `Cc1nn2c(C3CC3)c(C(=O)N[C@H]3CCOc4ccccc43)cnc2c1-c1cc(Cl)cc(C(F)(F)F)c1` [Example 465]?
**A.** EC50 [1]: < 0.1 mg/L; EC50 (C. elegans Slo-1a): 10 nM; chromatographic logP [2]: 5.11; EC50 [3]: < 0.1 mg/L; EC50 [4]: < 0.1 mg/L

**Q.** For `Cc1nn2c(N3CCOCC3)c(C(=O)N[C@H]3CCOc4ccccc43)cnc2c1-c1cccc(F)c1F` [Example 534], which EC50 [1] is on record?
**A.** < 0.1 mg/L

**Q.** What about the EC50 (C. elegans Slo-1a) of the same molecule?
**A.** 3.16 nM

**Q.** And the chromatographic logP [2]?
**A.** 4.32

**Q.** And the EC50 [3]?
**A.** < 0.1 mg/L

**Q.** What about the EC50 [4] of the same molecule?
**A.** < 0.1 mg/L

**Q.** For `Cc1nn2c(N3CCOCC3)c(C(=O)N[C@H]3CCOc4ccccc43)cnc2c1-c1c(F)ccc(F)c1F` [Example 535], which EC50 [1] is on record?
**A.** < 0.1 mg/L

**Q.** What about the EC50 (C. elegans Slo-1a) of the same molecule?
**A.** 2.51 nM

**Q.** What about the chromatographic logP [2] of the same molecule?
**A.** 3.29

**Q.** What about the EC50 [3] of the same molecule?
**A.** < 0.1 mg/L

**Q.** And the EC50 [4]?
**A.** < 0.1 mg/L
